Where a name gives a salt, the structure may show the parent alone. Read-outs that look alike come from different tables or passages of the source. Blank lines part the entries; values can stand above or below the compound they belong to.
Legend:
MMP-2 [1] = target: T1, MMP-2 (Homo sapiens, UniProt P08253)
T1 sequence (P08253 110-660): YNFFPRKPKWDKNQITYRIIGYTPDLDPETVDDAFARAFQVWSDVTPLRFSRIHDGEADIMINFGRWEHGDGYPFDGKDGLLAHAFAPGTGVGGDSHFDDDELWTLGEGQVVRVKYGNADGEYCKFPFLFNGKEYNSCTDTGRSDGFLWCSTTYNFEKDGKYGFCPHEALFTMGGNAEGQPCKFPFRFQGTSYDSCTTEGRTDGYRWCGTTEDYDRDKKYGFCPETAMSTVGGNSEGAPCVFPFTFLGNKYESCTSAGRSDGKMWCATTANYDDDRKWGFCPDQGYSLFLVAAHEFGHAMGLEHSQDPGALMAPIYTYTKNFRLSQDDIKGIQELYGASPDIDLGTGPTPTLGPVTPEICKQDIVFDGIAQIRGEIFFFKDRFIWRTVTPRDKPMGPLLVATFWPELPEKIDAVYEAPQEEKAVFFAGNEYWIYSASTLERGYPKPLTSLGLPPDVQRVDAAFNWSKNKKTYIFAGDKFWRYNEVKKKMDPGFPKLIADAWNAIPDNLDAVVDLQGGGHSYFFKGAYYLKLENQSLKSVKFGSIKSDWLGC

MMP-1 = target: T2, MMP-1 (Homo sapiens, UniProt P03956); experiment: MMP inhibition fluorometric assay, MMP-1; conditions: for ΔG exp MMP-1: experimental binding energy from activity data, racemic mixture tested
T2 sequence (P03956 100-469): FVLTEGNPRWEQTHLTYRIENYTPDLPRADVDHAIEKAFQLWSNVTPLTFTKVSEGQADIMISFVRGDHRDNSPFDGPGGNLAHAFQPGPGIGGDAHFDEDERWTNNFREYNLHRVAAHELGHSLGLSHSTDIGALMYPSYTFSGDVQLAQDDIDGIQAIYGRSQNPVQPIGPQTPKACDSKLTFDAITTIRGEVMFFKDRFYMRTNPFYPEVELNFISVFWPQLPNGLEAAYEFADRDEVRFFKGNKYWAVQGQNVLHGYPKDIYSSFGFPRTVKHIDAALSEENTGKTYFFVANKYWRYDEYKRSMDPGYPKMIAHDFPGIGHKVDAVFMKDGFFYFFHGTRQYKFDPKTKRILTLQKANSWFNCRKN

MMP-8 = MMP-8 (Homo sapiens, UniProt P22894); experiment: MMP inhibition fluorometric assay, MMP-8; conditions: for ΔG exp MMP-8: experimental binding energy from activity data, racemic mixture tested
Chain of MMP-8 (P22894 101-467): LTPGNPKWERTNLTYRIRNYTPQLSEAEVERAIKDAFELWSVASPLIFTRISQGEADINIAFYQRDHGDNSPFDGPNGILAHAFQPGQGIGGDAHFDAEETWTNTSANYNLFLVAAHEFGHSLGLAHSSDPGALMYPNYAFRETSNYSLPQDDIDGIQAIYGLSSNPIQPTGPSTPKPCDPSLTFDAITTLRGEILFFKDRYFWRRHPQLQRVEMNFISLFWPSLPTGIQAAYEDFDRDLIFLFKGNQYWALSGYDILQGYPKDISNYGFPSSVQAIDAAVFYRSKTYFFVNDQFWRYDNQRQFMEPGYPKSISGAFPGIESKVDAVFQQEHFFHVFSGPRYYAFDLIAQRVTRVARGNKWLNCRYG

MMP-9 = MMP-9 (Homo sapiens, UniProt P14780); experiment: MMP inhibition fluorometric assay, MMP-9; conditions: for ΔG exp MMP-9: experimental binding energy from activity data, racemic mixture tested
Chain of MMP-9 (P14780 107-707 limits assumed): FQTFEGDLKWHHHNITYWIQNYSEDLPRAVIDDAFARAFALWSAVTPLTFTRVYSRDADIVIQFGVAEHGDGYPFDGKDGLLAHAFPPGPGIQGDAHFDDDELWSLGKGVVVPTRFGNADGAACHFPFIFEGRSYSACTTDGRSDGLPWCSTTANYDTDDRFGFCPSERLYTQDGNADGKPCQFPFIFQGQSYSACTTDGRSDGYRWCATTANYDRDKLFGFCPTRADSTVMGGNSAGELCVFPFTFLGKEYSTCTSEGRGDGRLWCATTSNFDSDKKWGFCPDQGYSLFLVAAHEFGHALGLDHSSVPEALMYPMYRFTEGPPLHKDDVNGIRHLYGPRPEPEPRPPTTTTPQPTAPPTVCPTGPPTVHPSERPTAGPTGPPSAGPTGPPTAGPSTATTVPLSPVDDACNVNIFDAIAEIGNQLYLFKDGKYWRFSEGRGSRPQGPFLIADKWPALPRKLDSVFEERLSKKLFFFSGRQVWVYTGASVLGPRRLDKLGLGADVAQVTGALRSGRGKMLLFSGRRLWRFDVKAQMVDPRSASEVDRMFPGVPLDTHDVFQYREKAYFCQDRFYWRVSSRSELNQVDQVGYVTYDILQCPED

MMP-2 [2] = target: T1, MMP-2; experiment: biochemical
[3] = experimental binding energy from activity data, chiral compounds tested as racemic mixture
[4] = ratio of IC50 values versus 25a

- melting point: 196 to 198 °C
Compound: NC(CS)Cc1c[nH]cn1 (centres unmarked) (as salt: TFA) [Compound 1g]

Compound: O=S(=O)(N[C@H](CO)CS)c1ccc(Oc2ccccc2)cc1 (racemic) [25d R]
- ΔG exp (binding energy toward MMP-2) (MMP-2 [1]; [3]): -5.396 kcal
- ΔG exp MMP-1 (MMP-1): -4.224 kcal
- ΔG exp MMP-8 (MMP-8): -6.870 kcal
- ΔG exp MMP-9 (MMP-9): -6.705 kcal

Compound: Cl.O=S(=O)(N[C@@H](CO)Cc1c[nH]cn1)c1ccc(Oc2ccccc2)cc1 (racemic) [25e R]
- ΔG exp (binding energy toward MMP-2) (MMP-2 [1]; [3]): -5.069 kcal
- ΔG exp MMP-1 (MMP-1): -4.524 kcal
- ΔG exp MMP-8 (MMP-8): -4.740 kcal
- ΔG exp MMP-9 (MMP-9): -5.042 kcal

Compound: N[C@H](CO)CS.O=C(O)C(F)(F)F [1d R]
- ΔG exp (binding energy toward MMP-2) (MMP-2 [1]; [3]): -4.319 kcal

Compound: N[C@@H](CO)CS.O=C(O)C(F)(F)F [1d S]
- ΔG exp (binding energy toward MMP-2) (MMP-2 [1]; [3]): -4.319 kcal

Compound: N[C@@H](CO)Cc1c[nH]cn1.O=C(O)C(F)(F)F.O=C(O)C(F)(F)F [1e R]
- ΔG exp (binding energy toward MMP-2) (MMP-2 [1]; [3]): -4.565 kcal

Compound: N[C@H](CO)Cc1c[nH]cn1.O=C(O)C(F)(F)F.O=C(O)C(F)(F)F [1e S]
- ΔG exp (binding energy toward MMP-2) (MMP-2 [1]; [3]): -4.565 kcal

Compound: N#CC[C@@H](N)CS.O=C(O)C(F)(F)F [1h R]
- ΔG exp (binding energy toward MMP-2) (MMP-2 [1]; [3]): -4.497 kcal

Compound: N#CC[C@H](N)CS.O=C(O)C(F)(F)F [1h S]
- ΔG exp (binding energy toward MMP-2) (MMP-2 [1]; [3]): -4.497 kcal

Compound: N#CC[C@@H](N)CO.O=C(O)C(F)(F)F [1i R]
- ΔG exp (binding energy toward MMP-2) (MMP-2 [1]; [3]): -4.210 kcal

Compound: N#CC[C@H](N)CO.O=C(O)C(F)(F)F [1i S]
- ΔG exp (binding energy toward MMP-2) (MMP-2 [1]; [3]): -4.210 kcal

Compound: O=C(O)C(F)(F)F.O=C(O)C(F)(F)F.[N-]=[N+]=NC[C@H](N)Cc1c[nH]cn1 [1l R]
- ΔG exp (binding energy toward MMP-2) (MMP-2 [1]; [3]): -4.524 kcal

Compound: O=C(O)C(F)(F)F.O=C(O)C(F)(F)F.[N-]=[N+]=NC[C@@H](N)Cc1c[nH]cn1 [1l S]
- ΔG exp (binding energy toward MMP-2) (MMP-2 [1]; [3]): -4.524 kcal

Compound: O=S(=O)(N[C@@H](CO)CS)c1ccc(Oc2ccccc2)cc1 [25d S]
- ΔG exp (binding energy toward MMP-2) (MMP-2 [1]; [3]): -5.396 kcal
- ΔG exp MMP-1 (MMP-1): -4.224 kcal
- ΔG exp MMP-8 (MMP-8): -6.870 kcal
- ΔG exp MMP-9 (MMP-9): -6.705 kcal

Compound: Cl.O=S(=O)(N[C@H](CO)Cc1c[nH]cn1)c1ccc(Oc2ccccc2)cc1 [25e S]
- ΔG exp (binding energy toward MMP-2) (MMP-2 [1]; [3]): -5.069 kcal
- ΔG exp MMP-1 (MMP-1): -4.524 kcal
- ΔG exp MMP-8 (MMP-8): -4.740 kcal
- ΔG exp MMP-9 (MMP-9): -5.042 kcal

Compound: CC(=O)NO [AHA, acetohydroxamic acid, reference compound]
- IC50 (MMP-2 [1]; read-out: IC50 (μM ± SD), enzymatic inhibition of MMP-2, catalytic domain of MMP-2, ZBG library, value ± SD): 10000 ± 630 µM

- ΔG exp (binding energy toward MMP-2) (MMP-2 [1]; [3]): -4.837 kcal
- IC50 (MMP-2 [2]): 280 ± 24 µM
Compound: NC(CO)CO [Compound 1a, 2-aminopropane-1,3-diol]

Compound: N#CCC(N)CC#N.O=C(O)C(F)(F)F [Compound 1b, 3-Aminopentanedinitrile Trifluoroacetate]
- ΔG exp (binding energy toward MMP-2) (MMP-2 [1]): -4.428 kcal
- IC50 (MMP-2 [2]): 560 ± 52 µM

Compound: NC(CO)CS (centres unmarked) [Compound 1d, 2-Amino-3-mercaptopropan-1-ol Trifluoroacetate]
- IC50 (MMP-2 [2]): 674 ± 88 µM

- IC50 (MMP-2 [2]): 450 ± 23 µM
Compound: NC(CO)Cc1c[nH]cn1 (centres unmarked) [Compound 1e, 2-Amino-3-(1H-imidazol-4-yl)propan-1-ol Ditrifluoroacetate]

Compound: NC(CS)CS.O=C(O)C(F)(F)F [Compound 1f, 2-Aminopropane-1,3-dithiol Trifluoroacetate]
- ΔG exp (binding energy toward MMP-2) (MMP-2 [1]): -4.333 kcal
- IC50 (MMP-2 [2]): 666 ± 90 µM

Compound: N#CCC(N)CS (centres unmarked) [Compound 1h, 3-Amino-4-mercaptobutanenitrile Trifluoroacetate]
- IC50 (MMP-2 [2]): 500 ± 49 µM

Compound: N#CCC(N)CO.O=C(O)C(F)(F)F (centres unmarked) [Compound 1i, 3-Amino-4-hydroxybutanenitrile Trifluoroacetate]
- melting point: 131 to 133 °C
- IC50 (MMP-2 [2]): 807 ± 98 µM

Compound: [N-]=[N+]=NCC(N)CS (centres unmarked) [Compound 1j, 2-Amino-3-azidopropane-1-thiol Trifluoroacetate]
- IC50 (MMP-2 [2]): 520 ± 57 µM

Compound: [N-]=[N+]=NCC(N)Cc1c[nH]cn1 (centres unmarked) [Compound 1l, 1-Azido-3-(1H-imidazol-4-yl)propan-2-amine Ditrifluoroacetate]
- IC50 (MMP-2 [2]): 480 ± 25 µM

- ΔG exp (binding energy toward MMP-2) (MMP-2 [1]; [3]): -5.655 kcal
- IC50 (MMP-2 [2]): 71 ± 1.9 µM
- IC50 (MMP-1): 1030 ± 160 µM
- ΔG exp MMP-1 (MMP-1): -4.074 kcal
- IC50 (MMP-8): 98 ± 8 µM
- ΔG exp MMP-8 (MMP-8): -5.460 kcal
- IC50 (MMP-9): 160 ± 15 µM
- ΔG exp MMP-9 (MMP-9): -5.178 kcal
Compound: O=S(=O)(NC(CO)CO)c1ccc(Oc2ccccc2)cc1 [Compound 25a, N-(1,3-Dihydroxypropan-2-yl)-4-phenoxybenzenesulfonamide]

- IC50 (MMP-2 [2]): 110 ± 10 µM
- IC50 (MMP-1): 819 ± 116 µM
- IC50 (MMP-8): 9.1 ± 2.3 µM
- fold more potent than 25a on MMP-8 (MMP-8; [4]): 10 fold
- IC50 (MMP-9): 12 ± 4 µM
- fold more potent than 25a on MMP-9 (MMP-9; [4]): 13 fold
Compound: O=S(=O)(NC(CO)CS)c1ccc(Oc2ccccc2)cc1 (centres unmarked) [Compound 25d, N-(1-Hydroxy-3-mercaptopropan-2-yl)-4-phenoxybenzenesulfonamide]

- IC50 (MMP-2 [2]): 190 ± 8.7 µM
- IC50 (MMP-1): 480 ± 30 µM
- IC50 (MMP-8): 330 ± 21 µM
- IC50 (MMP-9): 200 ± 15 µM
Compound: O=S(=O)(NC(CO)Cc1c[nH]cn1)c1ccc(Oc2ccccc2)cc1 (centres unmarked) [Compound 25e, N-(1-Hydroxy-3-(1H-imidazol-4-yl)propan-2-yl)-4-phenoxybenzenesulfonamide Hydrochloride]
